Among the test systems are BT-549; COLO 205; HCT-15; K562; LOX IMVI; MCF7; MDA-MB-231; MDA-MB-435; MOLT-4; NCI-H460; OVCAR-3; OVCAR-8; PC-3; SF-268; SF-539; SK-MEL-28; SK-OV-3; SN12C; SR; T47D.
What all share (assay): NCI anticancer screen, dose series, 48 h

Data on seven compounds can be found in ChEMBL document CHEMBL1201862, “PubChem BioAssay data set” (2004).

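1) Cells in 96-well plates. 2) Compound, 48 h, 5 concentrations. 3) Linear interpolation between surrounding doses. 4) Unreached endpoint = highest concentration. At the GI50, growth is halved.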 Calls of active or inactive are those of the source. Cut-off read from the data, not from the text of the source: active = GI50 up to about 1.1 µM and inactive = higher.

`O=C(O)c1ccc(C(c2c(O)oc3ccccc3c2=O)c2c(O)oc3ccccc3c2=O)cc1`: the GI50 in the experiment with BT-549 was > 100 µM (inactive); in the experiment on COLO 205, 40.9 µM (inactive); in the experiment on HCT-15 it was over 100 µM; in the experiment with K562 it was 15.5 µM (inactive); in the experiment on LOX IMVI it was > 100 µM (inactive); in the experiment on MCF7, > 100 µM (inactive). Also, the GI50 with MDA-MB-231, in the experiment on MDA-MB-435, in the experiment on MOLT-4, in the experiment on NCI-H460, in the experiment with OVCAR-3 and in the experiment with OVCAR-8 was > 100 µM (inactive) throughout. The GI50 in the experiment with PC-3 is > 100 µM (inactive); in the experiment on SF-268 it was 4.97 µM (inactive); with SF-539, > 100 µM (inactive); with SK-MEL-28 it was 15.2 µM (inactive); in the experiment with SK-OV-3 it was > 100 µM (inactive); in the experiment with SN12C, > 100 µM (inactive). Further, the values for the GI50 in the experiment with SR and with T47D were 44.3 µM (inactive) and > 100 µM (inactive), respectively.
Regarding `C[C@]12CC[C@H]3[C@@H](CCC4=C[C@@H](OC5OCC(OC6OC(CO)C(O)C(O)C6O)C(O)C5O)CC[C@@]43C=O)[C@@]1(O)CCC2C1=CC(=O)OC1` (stereo not given in full), the GI50 in the experiment on BT-549 was 0.211 µM (active); in the experiment on COLO 205 it was 1.35 µM (inactive); with HCT-15, 0.504 µM; in the experiment on K562, 0.397 µM (active); with LOX IMVI, 0.63 µM (active); in the experiment on MCF7, 0.94 µM (active). Moreover, the GI50 is 3.02 µM (inactive) with MDA-MB-231; 0.843 µM (active) in the experiment on MDA-MB-435; 0.0986 µM (active) in the experiment with MOLT-4; 0.0982 µM (active) with NCI-H460; 0.375 µM (active) with OVCAR-3; 0.931 µM (active) with OVCAR-8. The GI50 was 0.631 µM (active) in the experiment with PC-3; 0.36 µM (active) in the experiment on SF-268; 0.391 µM (active) in the experiment on SF-539; 2.57 µM (inactive) in the experiment with SK-MEL-28; 1.13 µM (inactive) with SK-OV-3; 0.364 µM (active) in the experiment with SN12C. Besides, the GI50 with SR is 0.221 µM (active); in the experiment with T47D, 1.5 µM (inactive).
For `O=[N+]([O-])c1ccccc1S(=O)(=O)c1ccccc1[N+](=O)[O-]`, the GI50 in the experiment on BT-549 was 65.9 µM (inactive); with COLO 205, > 100 µM (inactive); in the experiment on HCT-15 it was over 100 µM; in the experiment on K562, > 100 µM (inactive); with LOX IMVI it was > 100 µM (inactive); in the experiment with MCF7, > 100 µM (inactive). Besides, the GI50 in the experiment with MDA-MB-231 is > 60.7 µM (inactive); with MDA-MB-435 it was > 100 µM (inactive); in the experiment with MOLT-4, > 100 µM (inactive); with NCI-H460, > 100 µM (inactive); in the experiment on OVCAR-3, > 100 µM (inactive); in the experiment with OVCAR-8 it was > 56.2 µM (inactive). The GI50 in the experiment on PC-3 was > 100 µM (inactive); with SF-268 it was 31.7 µM (inactive); in the experiment with SF-539, 54.8 µM (inactive); in the experiment on SK-MEL-28 it was > 100 µM (inactive); with SK-OV-3 it was > 90.8 µM (inactive); in the experiment with SN12C it was > 100 µM (inactive). Further, the GI50 in the experiment with SR and in the experiment with T47D was > 100 µM (inactive) each time.
Turning to `O=[N+]([O-])/C=C/c1cn(CCCCCn2cc(/C=C/[N+](=O)[O-])c3ccccc32)c2ccccc12`, the GI50 with BT-549 is 1.28 µM (inactive); in the experiment with COLO 205, 4.3 µM (inactive); with HCT-15, 2.17 µM; with K562, 0.83 µM (active); in the experiment on LOX IMVI, 0.611 µM (active); in the experiment on MCF7, 0.408 µM (active). The GI50 was 1.95 µM (inactive) in the experiment with MDA-MB-231; 0.953 µM (active) in the experiment with MDA-MB-435; 3.05 µM (inactive) in the experiment with MOLT-4; 1.79 µM (inactive) with NCI-H460; 1.78 µM (inactive) with OVCAR-3; 3.27 µM (inactive) with OVCAR-8. The GI50 in the experiment with PC-3 was 3.58 µM (inactive); in the experiment with SF-268, 2.18 µM (inactive); in the experiment on SF-539, 1.88 µM (inactive); with SK-MEL-28, 1.12 µM (active); in the experiment on SK-OV-3, 23.2 µM (inactive); with SN12C, 3.16 µM (inactive). Moreover, the GI50 is 0.973 µM (active) in the experiment with SR and 8.22 µM (inactive) in the experiment with T47D.
In the case of `O=C1Nc2ccccc2SC1=C(C(=O)c1ccccc1)C(=O)c1ccccc1`, the GI50 was 30.5 µM (inactive) in the experiment on BT-549; 29.2 µM (inactive) in the experiment with COLO 205; 37.5 µM in the experiment on HCT-15; 4.06 µM (inactive) with K562; 31.3 µM (inactive) with LOX IMVI; 34.9 µM (inactive) with MCF7. Moreover, the GI50 was 27.1 µM (inactive) in the experiment with MDA-MB-231; 21.8 µM (inactive) in the experiment on MDA-MB-435; 1.04 µM (active) in the experiment with MOLT-4; 28.1 µM (inactive) with NCI-H460; 12.3 µM (inactive) in the experiment on OVCAR-3; 52.4 µM (inactive) in the experiment with OVCAR-8. Moreover, the GI50 is 26.3 µM (inactive) in the experiment with PC-3; 32.1 µM (inactive) in the experiment with SF-268; 39.6 µM (inactive) in the experiment with SF-539; 55.6 µM (inactive) in the experiment on SK-MEL-28; 16 µM (inactive) in the experiment with SK-OV-3; 24 µM (inactive) in the experiment on SN12C. Also, the GI50 with SR is 17.7 µM (inactive); with T47D it was 53 µM (inactive).
Turning to `Cc1cc(=O)n2nc(CN3CCCCC3)sc2n1`, the GI50 in the experiment with BT-549 is > 100 µM (inactive); in the experiment with COLO 205, > 100 µM (inactive); in the experiment on HCT-15 it was over 100 µM; in the experiment on K562, > 100 µM (inactive); in the experiment on LOX IMVI, > 100 µM (inactive); in the experiment with MCF7, > 100 µM (inactive). Besides, the GI50 with MDA-MB-231, with MDA-MB-435, in the experiment with MOLT-4, in the experiment on NCI-H460, in the experiment on OVCAR-3 and in the experiment on OVCAR-8 was > 100 µM (inactive) in each case. The GI50 with PC-3, with SF-268, with SF-539, in the experiment with SK-MEL-28, in the experiment with SK-OV-3 and with SN12C was > 100 µM (inactive) in each case. Also, the GI50 in the experiment with SR and with T47D was > 100 µM (inactive) each time.
For `CCOC(=O)CCC(NC(=O)C(N)Cc1ccc(N(CCCl)CCCl)cc1)C(=O)OCC` (stereo not given), the GI50 in the experiment with BT-549 is 4.66 µM (inactive); in the experiment with COLO 205, 0.735 µM (active); in the experiment on HCT-15 it was 0.538 µM; in the experiment on K562, 0.446 µM (active); in the experiment on LOX IMVI, 0.187 µM (active); in the experiment on MCF7, 0.377 µM (active). For the same compound, the GI50 is 1.69 µM (inactive) in the experiment with MDA-MB-231; 1.49 µM (inactive) in the experiment with MDA-MB-435; 0.0451 µM (active) with MOLT-4; 0.0406 µM (active) in the experiment on NCI-H460; 0.667 µM (active) in the experiment with OVCAR-3; 0.867 µM (active) in the experiment on OVCAR-8. Further, the GI50 in the experiment on PC-3 is 1.34 µM (inactive); with SF-268 it was 0.592 µM (active); in the experiment on SF-539, 0.741 µM (active); in the experiment with SK-MEL-28, 0.719 µM (active); in the experiment on SK-OV-3, 1.3 µM (inactive); with SN12C, 1.51 µM (inactive). Also, the figures for the GI50 with SR and in the experiment on T47D were < 0.0182 µM (active) and 0.446 µM (active), respectively.
